Test results as given in PubChem BioAssay (NCI).
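Step 1: Grow cells in 96-well plates. Step 2: Expose to compound for 48 hours at 5 concentrations. Step 3: Interpolate endpoints linearly; if unreached, use highest concentration. GI50 marks 50% less growth. TGI marks complete inhibition of growth.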

How the values were obtained:
Assay in all cases: inhibition of tumour cell growth, NCI panel, 48 h
OVCAR-3 ovarian = tested on: OVCAR-3 ovarian
SF-295 CNS = tested on: SF-295 CNS
MCF7 breast = tested on: MCF7 breast
SNB-19 CNS = tested on: SNB-19 CNS
SN12C renal = tested on: SN12C renal
HOP-92 NSCLC = tested on: HOP-92 NSCLC
EKVX NSCLC = tested on: EKVX NSCLC
IGROV1 ovarian = tested on: IGROV1 ovarian
ACHN renal = tested on: ACHN renal
RXF 393 renal = tested on: RXF 393 renal
SK-MEL-28 melanoma = tested on: SK-MEL-28 melanoma
NCI-H460 lung = tested on: NCI-H460 lung
MDA-MB-435 = tested on: MDA-MB-435
M14 melanoma = tested on: M14 melanoma
SK-OV-3 ovarian = tested on: SK-OV-3 ovarian
RPMI-8226 leukemia = tested on: RPMI-8226 leukemia
HT29 colon = tested on: HT29 colon
SF-268 CNS = tested on: SF-268 CNS
HCT-116 colon = tested on: HCT-116 colon
T-47D breast = tested on: T-47D breast
A549 NSCLC = tested on: A549 NSCLC
U251 CNS = tested on: U251 CNS
NCI-H522 lung = tested on: NCI-H522 lung
NCI-H226 lung = tested on: NCI-H226 lung
UACC-62 melanoma = tested on: UACC-62 melanoma
UO-31 renal = tested on: UO-31 renal
SK-MEL-5 melanoma = tested on: SK-MEL-5 melanoma
MDA-MB-231 breast = tested on: MDA-MB-231 breast
HOP-62 NSCLC = tested on: HOP-62 NSCLC
PC-3 prostate = tested on: PC-3 prostate
BT-549 breast = tested on: BT-549 breast
SR leukemia = tested on: SR leukemia
OVCAR-5 ovarian = tested on: OVCAR-5 ovarian
KM12 colon = tested on: KM12 colon
786-0 renal = tested on: 786-0 renal
DU-145 prostate = tested on: DU-145 prostate
LOX IMVI melanoma = tested on: LOX IMVI melanoma
CAKI-1 renal = tested on: CAKI-1 renal
TK-10 renal = tested on: TK-10 renal
NCI/ADR-RES ovarian = tested on: NCI/ADR-RES ovarian
SK-MEL-2 melanoma = tested on: SK-MEL-2 melanoma
OVCAR-4 ovarian = tested on: OVCAR-4 ovarian
OVCAR-8 ovarian = tested on: OVCAR-8 ovarian
MALME-3M melanoma = tested on: MALME-3M melanoma
HCC-2998 colon = tested on: HCC-2998 colon
A498 renal = tested on: A498 renal
UACC-257 melanoma = tested on: UACC-257 melanoma
COLO 205 colon = tested on: COLO 205 colon
HS 578T breast = tested on: HS 578T breast
SNB-75 CNS = tested on: SNB-75 CNS
HCT-15 colon = tested on: HCT-15 colon
CCRF-CEM leukemia = tested on: CCRF-CEM leukemia
SF-539 CNS = tested on: SF-539 CNS

CC(C)(O)c1cncc(-c2ccc3ncnc(N4CCc5cc(F)c(Cl)cc54)c3c2)c1
GI50 (OVCAR-3 ovarian): 2270 nM
TGI (OVCAR-3 ovarian): > 100000 nM
GI50 (SF-295 CNS): 1140 nM
TGI (SF-295 CNS): 23100 nM
GI50 (MCF7 breast): 349 nM
TGI (MCF7 breast): > 100000 nM
GI50 (SNB-19 CNS): 2510 nM
TGI (SNB-19 CNS): > 100000 nM
GI50 (SN12C renal): 749 nM
TGI (SN12C renal): > 100000 nM
GI50 (HOP-92 NSCLC): 151 nM
TGI (HOP-92 NSCLC): 827 nM
GI50 (EKVX NSCLC): 520 nM
TGI (EKVX NSCLC): 9120 nM
GI50 (IGROV1 ovarian): 235 nM
TGI (IGROV1 ovarian): 1300 nM
GI50 (ACHN renal): 572 nM
TGI (ACHN renal): > 100000 nM
GI50 (RXF 393 renal): 432 nM
TGI (RXF 393 renal): 3070 nM
GI50 (SK-MEL-28 melanoma): 2980 nM
TGI (SK-MEL-28 melanoma): > 100000 nM
GI50 (NCI-H460 lung): 1330 nM
TGI (NCI-H460 lung): > 100000 nM
GI50 (MDA-MB-435): 2630 nM
TGI (MDA-MB-435): > 100000 nM
GI50 (M14 melanoma): 4890 nM
TGI (M14 melanoma): > 100000 nM
GI50 (SK-OV-3 ovarian): 649 nM
TGI (SK-OV-3 ovarian): 12200 nM
GI50 (RPMI-8226 leukemia): 1990 nM
TGI (RPMI-8226 leukemia): > 100000 nM
GI50 (HT29 colon): 908 nM
TGI (HT29 colon): > 100000 nM
GI50 (SF-268 CNS): 3220 nM
TGI (SF-268 CNS): > 100000 nM
GI50 (HCT-116 colon): 2350 nM
TGI (HCT-116 colon): > 100000 nM
GI50 (T-47D breast): 236 nM
TGI (T-47D breast): 4080 nM
GI50 (A549 NSCLC): 773 nM
TGI (A549 NSCLC): > 100000 nM
GI50 (U251 CNS): 6750 nM
TGI (U251 CNS): > 100000 nM
GI50 (NCI-H522 lung): 1870 nM
TGI (NCI-H522 lung): 85200 nM
GI50 (NCI-H226 lung): 3460 nM
TGI (NCI-H226 lung): > 100000 nM
GI50 (UACC-62 melanoma): 543 nM
TGI (UACC-62 melanoma): > 100000 nM
GI50 (UO-31 renal): 184 nM
TGI (UO-31 renal): 74200 nM
GI50 (SK-MEL-5 melanoma): 2940 nM
TGI (SK-MEL-5 melanoma): > 100000 nM
GI50 (MDA-MB-231 breast): 1500 nM
TGI (MDA-MB-231 breast): > 100000 nM
GI50 (HOP-62 NSCLC): 1190 nM
TGI (HOP-62 NSCLC): > 100000 nM
GI50 (PC-3 prostate): 775 nM
TGI (PC-3 prostate): > 100000 nM
GI50 (BT-549 breast): 1220 nM
TGI (BT-549 breast): 8890 nM
GI50 (SR leukemia): 1520 nM
TGI (SR leukemia): > 100000 nM
GI50 (OVCAR-5 ovarian): 1170 nM
TGI (OVCAR-5 ovarian): > 100000 nM
GI50 (KM12 colon): 5860 nM
TGI (KM12 colon): > 100000 nM
GI50 (786-0 renal): 722 nM
TGI (786-0 renal): 75400 nM
GI50 (DU-145 prostate): 1490 nM
TGI (DU-145 prostate): > 100000 nM
TGI (LOX IMVI melanoma): 65100 nM
GI50 (CAKI-1 renal): 388 nM
TGI (CAKI-1 renal): > 100000 nM
GI50 (TK-10 renal): 417 nM
TGI (TK-10 renal): > 100000 nM
GI50 (NCI/ADR-RES ovarian): 1590 nM
TGI (NCI/ADR-RES ovarian): > 100000 nM
GI50 (SK-MEL-2 melanoma): 4890 nM
TGI (SK-MEL-2 melanoma): 66600 nM
GI50 (OVCAR-4 ovarian): 1350 nM
TGI (OVCAR-4 ovarian): > 100000 nM
GI50 (OVCAR-8 ovarian): 2590 nM
TGI (OVCAR-8 ovarian): > 100000 nM
GI50 (MALME-3M melanoma): 1520 nM
TGI (MALME-3M melanoma): > 100000 nM
GI50 (HCC-2998 colon): 2360 nM
TGI (HCC-2998 colon): > 100000 nM
GI50 (A498 renal): 197 nM
TGI (A498 renal): 1170 nM
GI50 (UACC-257 melanoma): 3960 nM
TGI (UACC-257 melanoma): > 100000 nM
GI50 (COLO 205 colon): 3520 nM
TGI (COLO 205 colon): > 100000 nM
GI50 (HS 578T breast): 754 nM
TGI (HS 578T breast): 11700 nM
GI50 (SNB-75 CNS): 407 nM
TGI (SNB-75 CNS): 15200 nM
GI50 (HCT-15 colon): 1110 nM
TGI (HCT-15 colon): > 100000 nM
GI50 (CCRF-CEM leukemia): 2320 nM
TGI (CCRF-CEM leukemia): > 100000 nM
GI50 (SF-539 CNS): 1960 nM
TGI (SF-539 CNS): 84500 nM
